According to patent US7288659B2, “Acylaminothiazole derivatives, their preparation and therapeutic use” (Sanofi-Aventis, priority 2001, dated 2007):

SMILES	melting point [°C]
CC(NC(=O)Cc1cc(F)cc(F)c1)C(=O)Nc1ncc(-c2ccccc2COc2ccccc2)s1 (stereo not drawn) [Compound No. 5, 2-{[2-(3,5-difluorophenyl)acetyl]amino}-N-{5-[2-(phenoxymethyl)phenyl]-1,3-thiazol-2-yl}propanamide]	114
C[C@@H](NC(=O)Cc1cc(F)cc(F)c1)C(=O)Nc1ncc(-c2ccccc2COC2CCCCC2)s1 [compound 25, (2R)-N-(5-{2-[(cyclohexyloxy)methyl]phenyl}-1,3-thiazol-2-yl)-2-{[2-(3,5-difluorophenyl)acetyl]amino}-propanamide]	95
CC(C)C(NC(=O)Cc1cc(F)cc(F)c1)C(=O)Nc1ncc(-c2ccccc2COC2CCCCC2)s1 (stereo not drawn) [compound 10, N-(5-{2-[(cyclohexyloxy)methyl]phenyl}-1,3-thiazol-2-yl}-2-{[2-(3,5-difluorophenyl)acetyl]amino}-3-methylbutanamide]	181
C[C@H](NC(=O)[C@H](O)c1cc(F)cc(F)c1)C(=O)Nc1ncc(-c2ccccc2COC2CCCCC2)s1 (racemic) [Compound No. 50, (2S)-N-(5-{2-[(cyclohexyloxy)methyl]phenyl}-1,3-thiazol-2-yl)-2-{[(2R)-2-(3,5-difluorophenyl)-2-hydroxyacetyl]amino}propanamide]	169
CCC[C@H](NC(=O)Cc1cc(F)cc(F)c1)C(=O)Nc1ncc(-c2ccccc2COC(C)C)s1 [compound 72, (2S)-2-{[2-(3,5-difluorophenyl)acetyl]amino}-N-{5-[2-(isopropoxymethyl)phenyl]-1,3-thiazol-2-yl}pentanamide]	74
CCC[C@H](NC(=O)[C@@H](O)c1cc(F)cc(F)c1)C(=O)Nc1ncc(-c2ccccc2COC2CCCCC2)s1 [compound 55, (2S)-N-(5-{2-[(cyclohexyloxy)methyl]phenyl}-1,3-thiazol-2-yl)-2-{[(2S)-2-(3,5-difluorophenyl)-2-hydroxyacetyl]amino}pentanamide]	141
Cc1nc(NC(=O)[C@H](C)NC(=O)Cc2cc(F)cc(F)c2)sc1-c1ccccc1COC1CCCC1 [compound 28, (2S)-N-(5-{2-[(cyclopentyloxy)methyl]phenyl}-4-methyl-1,3-thiazol-2-yl)-2-{[2-(3,5-difluorophenyl)-acetyl]amino}propanamide]	141
C[C@H](NC(=O)Cc1cc(F)cc(F)c1)C(=O)Nc1ncc(-c2ccccc2COc2ccccc2)s1 [compound 21, (2S)-2-{[2-(3,5-difluorophenyl)acetyl]amino}-N-{5-[2-(phenoxymethyl)phenyl]-1,3-thiazol-2-yl}propanamide]	78
C[C@H](NC(=O)Cc1ccc(F)c(F)c1)C(=O)Nc1ncc(-c2ccccc2COC2CCCCC2)s1 [compound 30, (2S)-N-(5-{2-[(cyclohexyloxy)methyl]phenyl}-1,3-thiazol-2-yl)-2-{[2-(3,4-difluorophenyl)acetyl]amino}-propanamide]	136
Cc1ccc(CC(=O)N[C@@H](C)C(=O)Nc2ncc(-c3ccccc3COC3CCCCC3)s2)cc1 [compound 17, (2S)-N-(5-{2-[(cyclohexyloxy)methyl]phenyl}-1,3-thiazol-2-yl)-2-{[2-(4-methylphenyl)acetyl]amino}-propanamide]	239
Cc1nc(NC(=O)C(C)NC(=O)Cc2cc(F)cc(F)c2)sc1-c1ccccc1COC1CCCC1 (stereo not drawn) [compound 14, N-(5-{2-[(cyclopentyloxy)methyl]phenyl}-4-methyl-1,3-thiazol-2-yl)-2-{[2-(3,5-difluorophenyl)acetyl]-amino}propanamide]	104
CC(C)OCc1cccc(-c2cnc(NC(=O)[C@H](C)NC(=O)Cc3cc(F)cc(F)c3)s2)c1 [compound 45, (2S)-2-{[2-(3,5-difluorophenyl)acetyl]amino}-N-(5-{3-(isopropoxymethyl)phenyl}-1,3-thiazol-2-yl)propanamide]	136
